From ChEMBL document CHEMBL1201862, “PubChem BioAssay data set” (2004)
The source made the active and inactive calls.

Columns and labels:
HEK293 = assay: EBV LMP1 TES2 canonical NF-kB signalling blockers – cell-based, HEK293, luciferase, cherry-pick, dose response (AID 588343); type: functional; settings: Homo sapiens
[1] = reduction of Shn3 3'UTR-driven luciferase in osteoblasts – cell-based, Clone20 osteoblasts, firefly luciferase, cherry-picked, dose response (AID 624132); type: functional;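 also: firefly luciferase luminescence from reporter carrying the Shn3 3'UTR in osteoblasts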
[2] = non-specific 3'UTR reporter inhibition in Clone20-Shn3RL – cell-based, Renilla luciferase, cherry-picked, counter-screen for Shn3 inhibitor project, dose response (AID 624133); type: functional
Paired box protein Pax-8 = Paired box protein Pax-8 (Homo sapiens, UniProt Q06710); assay: PAX8 transcriptional activity inhibition in RMG-I – RMG-I cells, luciferase, cherry-pick, dose response (AID 687027); type: functional, cell-based;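 also: luciferase reporter driven by Pax8 target thyroperoxidase promoter measured by SteadyGlo luminescence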
Sequence of Paired box protein Pax-8 (Q06710 whole entry): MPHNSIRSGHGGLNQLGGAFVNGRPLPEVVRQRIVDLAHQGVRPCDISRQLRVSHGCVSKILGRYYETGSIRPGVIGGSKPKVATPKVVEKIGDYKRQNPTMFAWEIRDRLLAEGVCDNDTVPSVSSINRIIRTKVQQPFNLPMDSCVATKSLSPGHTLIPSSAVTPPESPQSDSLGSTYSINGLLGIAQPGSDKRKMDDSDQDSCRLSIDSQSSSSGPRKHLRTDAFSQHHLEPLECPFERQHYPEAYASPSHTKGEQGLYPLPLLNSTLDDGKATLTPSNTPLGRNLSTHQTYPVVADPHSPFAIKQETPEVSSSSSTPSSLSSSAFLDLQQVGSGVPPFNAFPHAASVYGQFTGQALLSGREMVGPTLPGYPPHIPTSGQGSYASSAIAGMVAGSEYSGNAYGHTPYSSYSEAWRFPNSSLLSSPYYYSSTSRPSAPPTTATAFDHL

[3] = inhibitors acting on PAX2 in cells – cell-based, plate reader, dry powder samples, selectivity assay for PAX8 inhibitor project, dose response (AID 743048); type: functional;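 also: HEK293 cells carrying a WT1 promoter luciferase reporter driven by expressed Pax2; potency is for inhibition of Pax2 driven reporter signal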
[4] = COV362 cell viability loss – plate reader, dry powder, SA12, cytotoxicity control for PAX8 inhibitor project, dose response (AID 743144); type: functional, cell-based
[5] = Shn3 3'UTR reporter signal decrease – cell-based, Clone20 osteoblasts, firefly luciferase, cherry-pick, set 2, Schnurri-3 inhibitor project, dose response (AID 720490); type: functional;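 also: actives lower the luminescence signal as inhibitors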
[6] = toxicity toward immortalized ovarian surface epithelium – cell-based, plate reader, dry powder samples, cytotoxicity control for PAX8 inhibitor project, dose response (AID 743045); type: functional
[7] = PAX5 cellular inhibition readout – cell-based, plate reader, dry powder samples, selectivity assay for PAX8 inhibitor project, dose response (AID 743047); type: functional;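 also: HEK293 cells carrying a Pax5 driven CD19 promoter luciferase reporter; potency of inhibitors that lower reporter luminescence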
[8] = A549 cell cytotoxicity, dose response, cytotoxicity control, plate reader, cherry-pick, antagonist series (AID 743412); type: functional, cell-based
[9] = blockers of bursicon-stimulated LGR2 cAMP reporter – cell-based, HEK293, CRE-luciferase reporter, cherry pick, set 2, dose response (AID 743343); type: functional;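 also: transfected cells were stimulated with diluted bursicon conditioned medium after compound addition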
[10] = COV434 cell viability loss – plate reader, dry powder, SA7, cytotoxicity control for PAX8 inhibitor project, dose response (AID 743145); type: functional, cell-based
[11] = OV-90 cell viability loss – plate reader, dry powder, SA8, PAX8 inhibitor project, dose response (AID 743149); type: functional, cell-based
[12] = blockade of melanocortin 4 receptor signaling – cell-based, plate reader, cherry pick, counter-screen for LGR2 antagonist project, dose response (AID 743444); type: functional;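 also: transfected HEK 293 cells stimulated with alpha-MSH peptide; potency of inhibitors of the alpha-MSH evoked signal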
[13] = PAX8-dependent cell viability loss – plate reader, dry powder, dose response (AID 743049); type: functional, cell-based
[14] = target: T1, DNA repair and recombination protein RAD54-like (Homo sapiens, UniProt Q92698); assay: RAD54 Holliday junction migration blockers – biochemical, fluorescence, cherry-picked samples, dose series, confirmation (AID 651657); type: functional
T1 sequence (Q92698 whole entry): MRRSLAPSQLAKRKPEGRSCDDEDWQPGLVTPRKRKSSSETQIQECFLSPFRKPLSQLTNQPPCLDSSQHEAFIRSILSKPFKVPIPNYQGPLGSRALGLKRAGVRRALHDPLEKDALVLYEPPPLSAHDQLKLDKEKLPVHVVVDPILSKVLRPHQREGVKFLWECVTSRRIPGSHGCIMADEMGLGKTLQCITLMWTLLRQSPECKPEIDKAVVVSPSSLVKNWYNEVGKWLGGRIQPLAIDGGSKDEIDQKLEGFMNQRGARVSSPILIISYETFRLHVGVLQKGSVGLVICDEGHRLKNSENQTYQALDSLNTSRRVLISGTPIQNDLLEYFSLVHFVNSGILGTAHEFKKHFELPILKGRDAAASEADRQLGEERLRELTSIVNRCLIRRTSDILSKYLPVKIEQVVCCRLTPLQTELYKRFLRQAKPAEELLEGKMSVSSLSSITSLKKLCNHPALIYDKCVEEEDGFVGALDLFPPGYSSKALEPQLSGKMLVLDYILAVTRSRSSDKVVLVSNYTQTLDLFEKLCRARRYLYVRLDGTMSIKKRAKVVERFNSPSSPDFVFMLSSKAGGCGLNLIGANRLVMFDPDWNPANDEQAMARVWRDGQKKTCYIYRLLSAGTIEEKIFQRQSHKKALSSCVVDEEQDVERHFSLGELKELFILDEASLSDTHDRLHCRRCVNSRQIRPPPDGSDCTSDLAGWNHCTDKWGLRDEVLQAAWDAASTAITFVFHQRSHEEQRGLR

Protein S100-A4 = Protein S100-A4 (Homo sapiens, UniProt P26447); assay: human S100A4 peptide interaction inhibition curves – biochemical, fluorescence polarization, cherry-picked hits, dose response (AID 687001); type: functional
Sequence of Protein S100-A4 (P26447 whole entry): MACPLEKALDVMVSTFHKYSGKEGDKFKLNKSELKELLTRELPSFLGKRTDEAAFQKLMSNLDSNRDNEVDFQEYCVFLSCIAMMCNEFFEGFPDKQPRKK

[15] = target: T2, DNA repair protein RAD52 homolog (Homo sapiens, UniProt P43351); type: functional, biochemical
T2 sequence (P43351 whole entry): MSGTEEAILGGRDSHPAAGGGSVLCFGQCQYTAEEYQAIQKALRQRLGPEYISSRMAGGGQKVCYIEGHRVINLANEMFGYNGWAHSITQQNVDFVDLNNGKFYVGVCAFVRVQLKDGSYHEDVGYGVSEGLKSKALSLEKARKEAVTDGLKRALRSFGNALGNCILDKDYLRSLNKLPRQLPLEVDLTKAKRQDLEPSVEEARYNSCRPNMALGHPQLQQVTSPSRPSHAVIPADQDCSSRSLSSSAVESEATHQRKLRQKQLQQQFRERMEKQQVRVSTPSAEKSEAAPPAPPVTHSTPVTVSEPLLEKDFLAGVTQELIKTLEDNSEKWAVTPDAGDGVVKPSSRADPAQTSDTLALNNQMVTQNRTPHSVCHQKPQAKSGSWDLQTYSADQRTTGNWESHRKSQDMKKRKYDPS

[16] = cytotoxicity in HEK293 background cells – cell-based, dry powder, set 2, counter-screen for EBV LMP1 inhibitor project, dose response (AID 624374); type: functional
[17] = viability loss in LCL cells – cell-based, plate reader, dry powder, set 2, cytotoxicity control, dose response (AID 624367); type: functional
[18] = A2780 cell killing – plate reader, dry powder samples, cytotoxicity control, dose response (AID 743046); type: functional, cell-based
[19] = OVCAR8 cell viability loss – plate reader, dry powder samples, PAX8 project, dose response (AID 743197); type: functional, cell-based; settings: OVCAR-8
[20] = target: Metabotropic glutamate receptor 3 (Rattus norvegicus, UniProt P31422); assay: inhibitors of rat mGlu3 Galpha15 signaling – TREx293 cells, calcium flux, mGlu3 NAM project, dose response (AID 651840); type: functional
Sequence of Metabotropic glutamate receptor 3 (P31422 whole entry): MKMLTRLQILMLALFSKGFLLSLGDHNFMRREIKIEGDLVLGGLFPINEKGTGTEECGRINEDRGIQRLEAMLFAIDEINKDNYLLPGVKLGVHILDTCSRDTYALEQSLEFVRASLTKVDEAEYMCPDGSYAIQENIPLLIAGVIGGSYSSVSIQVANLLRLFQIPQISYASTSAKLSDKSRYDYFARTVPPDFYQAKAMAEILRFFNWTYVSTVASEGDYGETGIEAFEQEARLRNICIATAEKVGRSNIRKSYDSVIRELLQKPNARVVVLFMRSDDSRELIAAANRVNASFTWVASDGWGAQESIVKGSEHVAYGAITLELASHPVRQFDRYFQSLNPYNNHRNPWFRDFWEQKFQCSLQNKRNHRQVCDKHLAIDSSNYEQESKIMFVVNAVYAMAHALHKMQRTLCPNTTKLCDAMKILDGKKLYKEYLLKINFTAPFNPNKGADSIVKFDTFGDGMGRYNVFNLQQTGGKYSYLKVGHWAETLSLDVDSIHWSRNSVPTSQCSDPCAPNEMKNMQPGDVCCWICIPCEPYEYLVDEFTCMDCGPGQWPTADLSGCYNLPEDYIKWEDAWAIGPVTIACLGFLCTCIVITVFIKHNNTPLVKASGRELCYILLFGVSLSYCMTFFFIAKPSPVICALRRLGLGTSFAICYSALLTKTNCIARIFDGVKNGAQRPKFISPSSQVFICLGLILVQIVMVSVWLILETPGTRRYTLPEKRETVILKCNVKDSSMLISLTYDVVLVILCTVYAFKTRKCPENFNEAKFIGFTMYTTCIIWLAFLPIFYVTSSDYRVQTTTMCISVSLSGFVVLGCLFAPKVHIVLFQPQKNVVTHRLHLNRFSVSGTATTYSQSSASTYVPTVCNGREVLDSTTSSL

[21] = target: Endoplasmic reticulum aminopeptidase 1 (Homo sapiens, UniProt Q9NZ08); assay: inhibition of human ERAP1 enzyme activity – biochemical, cherry-pick, set 2, plate reader, dose response (AID 743314)
Sequence of Endoplasmic reticulum aminopeptidase 1 (Q9NZ08 whole entry): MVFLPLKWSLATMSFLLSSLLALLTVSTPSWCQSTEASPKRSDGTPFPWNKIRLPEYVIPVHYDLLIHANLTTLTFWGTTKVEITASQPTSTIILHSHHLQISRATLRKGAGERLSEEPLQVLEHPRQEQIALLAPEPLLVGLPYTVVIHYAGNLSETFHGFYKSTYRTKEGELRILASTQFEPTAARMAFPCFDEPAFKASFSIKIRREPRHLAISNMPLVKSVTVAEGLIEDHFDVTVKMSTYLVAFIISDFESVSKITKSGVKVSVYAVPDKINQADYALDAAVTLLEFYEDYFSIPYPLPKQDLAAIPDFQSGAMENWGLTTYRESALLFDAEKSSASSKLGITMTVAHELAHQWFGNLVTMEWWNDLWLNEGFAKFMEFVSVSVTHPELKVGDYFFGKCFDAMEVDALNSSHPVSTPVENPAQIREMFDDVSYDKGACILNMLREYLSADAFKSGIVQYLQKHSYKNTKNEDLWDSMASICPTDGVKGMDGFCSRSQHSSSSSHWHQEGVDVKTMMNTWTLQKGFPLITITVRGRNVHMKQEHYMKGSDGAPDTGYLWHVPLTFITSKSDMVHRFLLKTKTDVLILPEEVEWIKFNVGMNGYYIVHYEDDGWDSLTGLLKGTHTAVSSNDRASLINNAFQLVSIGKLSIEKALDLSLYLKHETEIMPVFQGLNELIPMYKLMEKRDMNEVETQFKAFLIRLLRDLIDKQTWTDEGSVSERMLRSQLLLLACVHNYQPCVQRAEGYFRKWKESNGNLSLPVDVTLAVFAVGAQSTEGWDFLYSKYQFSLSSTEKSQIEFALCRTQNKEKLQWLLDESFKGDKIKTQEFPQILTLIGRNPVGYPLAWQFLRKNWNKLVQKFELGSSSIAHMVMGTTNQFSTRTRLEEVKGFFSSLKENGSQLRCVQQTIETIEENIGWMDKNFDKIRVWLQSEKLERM

[22] = Late stage assay provider results from the probe development effort to identify selective inhibitors of heat shock protein 90 (HSP90): Absorbance-based cell proliferation assay in SKBR3 cells.; type: functional; settings: SK-BR-3
[23] = Late stage assay provider results from the probe development effort to identify selective inhibitors of heat shock protein 90 (HSP90): Absorbance-based cell proliferation assay in MCF7 cells.; type: functional
[24] = T. cruzi growth inhibition in host cells, dose response, cell-based, plate reader, dry powder, set 2 (AID 652275); type: functional
[25] = viability loss in HepG2 hepatoma cells – cell-based, cherry-picks, set 5, cytotoxicity control, dose response (AID 1053118); type: functional
[26] = viability loss in HEK293 kidney cells – cell-based, cherry-picks, set 5, cytotoxicity control, dose response (AID 1053117); type: functional
[27] = viability loss in A549 lung cancer cells – cell-based, cherry-picks, […], cytotoxicity control, dose response (AID 1053119); type: functional
[28] = Late stage assay provider results from the probe development effort to identify inhibitors of Protein Arginine Deaminase 4 (PAD4): cell-based absorbance-based assay to assess cytotoxicity of test compounds.; type: functional

**Q.** What does the source list for `CCCn1c(C)cc(C(=O)CN2C(=O)c3ccccc3S2(=O)=O)c1C`?
**A.** AC50 (HEK293): 0.211 µM (active); AC50 [1]: 2.98 µM (active); AC50 [2]: 26.8 µM (active); AC50 (Paired box protein Pax-8): 3.55 µM (active); AC50 [3]: 4.42 µM (active); AC50 [4]: 77.7 µM (active); AC50 [5]: 9.79 µM (active); AC50 [6]: 81.2 µM (active); AC50 [7]: 3.24 µM (active); AC50 [8]: > 52 µM (inactive); AC50 [9]: 0.69 µM (active); AC50 [10]: > 100 µM (inactive); AC50 [11]: 82.5 µM (active); AC50 [12]: 0.798 µM (active); AC50 [13]: 55.7 µM (active)

**Q.** Which results are given for `Cc1cccc(-c2cc(N3CCCN(C)CC3)n3nccc3n2)c1`?
**A.** AC50 [14]: 24 µM (active); AC50 (Protein S100-A4): 7.12 µM (active); AC50 [15]: 2.45 µM (active)

**Q.** Which AbsAC35 [16] does the source give for `COc1cccc(C#Cc2ccc([C@@H]3[C@H](C#N)N(C(=O)c4ccccn4)[C@H]3CO)cc2)c1` here?
**A.** Its AbsAC35 is 296.86 µM.

**Q.** And the AbsAC35 [17]?
**A.** The AbsAC35 was 55.61 µM.

**Q.** What about the AC50 (Paired box protein Pax-8) of the same compound?
**A.** The AC50 was 11.9 µM (active).

**Q.** And the AC50 [3]?
**A.** Its AC50 is > 70 µM (inactive).

**Q.** What about the AC50 [18] of the same compound?
**A.** The AC50 was 12.7 µM (active).

**Q.** What about the AC50 [7] of the same compound?
**A.** Its AC50 is > 70 µM (inactive).

**Q.** What about the AC50 [10] of the same compound?
**A.** The AC50 was > 70 µM (inactive).

**Q.** What about the AC50 [19] of the same compound?
**A.** The AC50 was 63.7 µM (active).

**Q.** And the AC50 [13]?
**A.** Its AC50 is 35.1 µM (active).

**Q.** With `COc1ccc(C#Cc2ccc(C(=O)N3CCCC(C)(O)C3)cc2)cc1` (stereo unspecified) as the compound, how does the IC50 [20] read?
**A.** The IC50 was 0.525 µM.

**Q.** For `CCC(=O)N1[C@@H]2c3ccc(/C=C/c4ccccc4)c(=O)n3C[C@H]1[C@H](CO)[C@H]2C(=O)N(C)C`, which AC50 [21] is on record?
**A.** The AC50 was 9.44 µM (active).

**Q.** Which results are given for `COC(=O)c1cccc(COc2ccc3cc(Br)c(=O)oc3c2)c1`?
**A.** IC50 [22]: > 100 µM (inactive); IC50 [23]: > 100 µM (inactive)

**Q.** Which AC50 [24] does the source give for `CC(C)N1CC2(CN(Cc3ccc(-c4ccccc4)cc3)C2)Oc2c(NC(=O)c3ccncc3)cccc2C1=O` here?
**A.** The AC50 was 0.00131 µM (active).

**Q.** With `C[C@H](CO)N1C[C@H](C)[C@@H](CN(C)C(=O)Nc2cccc3ccccc23)Oc2c(NC(=O)Nc3ccc(C(F)(F)F)cc3)cccc2C1=O` as the compound, how does the AC50 [25] read?
**A.** The AC50 was 34.4 µM (active).

**Q.** What about the AC50 [26] of the same compound?
**A.** Its AC50 is > 52 µM (inactive).

**Q.** What about the AC50 [27] of the same compound?
**A.** Its AC50 is > 52 µM (inactive).

**Q.** With `NC1=CC(=O)c2ccc(-c3cccc(C(=O)O)n3)nc2C1=O` as the compound, how does the CC50 [28] read?
**A.** The CC50 was 26.5 µM (inactive).
